Data on five compounds can be found in article PMC5598073, “A novel and efficient fungal delignification strategy based on versatile peroxidase for lignocellulose bioconversion” (Biotechnology for Biofuels, 2017).

Test [1] deals with T1, Lac.
T1 construct: native secreted enzyme purified from solid corn stover cultures; single band
The experiment in a line: spectrophotometric oxidation, […] nm. Type of test: biochemical, Physisporinus vitreus. Particulars: 50 mM malonate pH 4.5; read-out: K m (mol L^-1) / Lac.

Test [2] has as its system T2, VP.
T2 construct: native secreted enzyme purified from solid corn stover cultures; single band
The experiment in a line: spectrophotometric oxidation, […] nm. In kind it is biochemical, Physisporinus vitreus. Particulars: 50 mM malonate pH 4.5, 0.1 mM H2O2, with or without 1 mM MnSO4 (not told per substrate); read-out: K m (mol L^-1) / VP.

Test [3] concerns Lac. Particulars: read-out: K m (mol L^-1) / Lac; 50 mM malonate pH 4.5.
Test [4] has as its system VP. Particulars: read-out: K m (mol L^-1) / VP; 50 mM malonate pH 4.5, 0.1 mM H2O2, with or without 1 mM MnSO4 (not told per substrate).
Test [5] relates to T1, Lac. Briefly: spectrophotometric oxidation, […] nm. In kind it is biochemical, Physisporinus vitreus. Particulars: 50 mM malonate pH 4.5; read-out: K m (mol L^-1) / Lac. This is another data set of the same source.
Test [6] deals with T2, VP. The experiment in a line: spectrophotometric oxidation, […] nm. Particulars: 50 mM malonate pH 4.5, 0.1 mM H2O2, with or without 1 mM MnSO4 (not told per substrate); read-out: K m (mol L^-1) / VP. Type of test: biochemical, Physisporinus vitreus. This is another data set of the same source.
Test [7] deals with T2, VP. Briefly: spectrophotometric oxidation, […] nm. Type of test: biochemical, Physisporinus vitreus. To be noted: 50 mM malonate pH 4.5, 0.1 mM H2O2, with or without 1 mM MnSO4 (not told per substrate).
Test [8] concerns T2, VP. The experiment in a line: spectrophotometric oxidation, […] nm. Type of test: biochemical, Physisporinus vitreus. To be noted: 50 mM malonate pH 4.5, 0.1 mM H2O2, with or without 1 mM MnSO4 (not told per substrate). The source holds these as a separate data set.

The structures appear in SMILES notation. Like-named read-outs stand apart in the source and are kept apart here.

Take `Cc1cccc(C)c1O` [2,6-DMP]: the values for the Km in test [1] and in test [2] were 280 µM and 44 µM, respectively.

Turning to `CCn1c(=NN=c2sc3cc(S(=O)(=O)O)ccc3n2CC)sc2cc(S(=O)(=O)O)ccc21` [ABTS], the Km in test [3] was 13 µM; in test [4], 35 µM.

`COc1ccccc1O` [Guaiacol]: the Km was 900 µM in test [5] and 130 µM in test [6].

In the case of `Nc1c(N=Nc2ccc(S(=O)(=O)CCOS(=O)(=O)O)cc2)c(S(=O)(=O)O)cc2cc(S(=O)(=O)O)c(N=Nc3ccc(S(=O)(=O)CCOS(=O)(=O)O)cc3)c(O)c12` [RB5], the Km in test [7] was 14.2 µM.

As to `COc1ccc(CO)cc1OC` [VA], the Km in test [8] stood at 213 µM.
